Test results from patent US20240082282A1 (priority 2020, published 2024).
Where two headings read alike, the source gives them in different places.

How the values were obtained:
[1] = system: Borrelia burgdorferi (B31, N40, 297); type: cell-based
[2] = system: Clostridium tertium KLE 2303; type: cell-based; settings: Clostridium tertium KLE 2303, anaerobic, stool isolate
[3] = system: Staphylococcus aureus HG003; type: cell-based
Escherichia coli MG1655 = type: cell-based
[4] = system: Pseudomonas aeruginosa PAO1; type: cell-based
[5] = system: Streptococcus sanguinis KLE 2374; type: cell-based; settings: Streptococcus sanguinis KLE 2374, anaerobic, stool isolate
[6] = system: Bacteroides fragilis ATCC 25285; type: cell-based
[7] = system: Bacteroides vulgatus KLE 2381; type: cell-based; settings: Bacteroides vulgatus KLE 2381, anaerobic, stool isolate
[8] = system: Enterococcus faecalis KLE 2341; type: cell-based
[9] = system: Bacteroides xylanisolvens KLE 2305; type: cell-based; settings: Bacteroides xylanisolvens KLE 2305, anaerobic, stool isolate
B. turcica KLEX1 = assay: MIC of hygromycin A resistant mutant; type: cell-based
B. burgdorferi B31 KLEX2 = assay: MIC of hygromycin A resistant mutant; type: cell-based
[10] = system: B. burgdorferi overexpressing bmpD (Bb1286+pJSB275m_bmpD); assay: MIC of B. burgdorferi overexpressing bmpD; type: cell-based
B. burgdorferi N40 [11] = assay: Bait experiment in infected mice; type: in vivo, C3H mice
Experimental: Mice were infected with B. burgdorferi.
To prepare the mouse bait, 2 g of Bait formulation 3 (Food source), 0.5 g freshly ground peanut butter (Whole foods), 35 μl of green food coloring mix (Whole foods) were added into a 60 mm Petri dish. Boiling water (4 mL) was added and mixed with a spatula. The mixture was then dispensed into wells of a 96 well plate with a spatula such that about ⅔rd of the well was full. Antibiotics or vehicle were added at appropriate volume and mixed with a pipette tip. Added volume was kept below 60 μL per well. The bait was allowed to air dry/solidify for a few hours and the prepared baits were stored at 4° C. until use.
To ensure that the bait would be consumed, mice were housed individually with their mouse chow withheld during treatment. The doses used in mice were matched to the pharmacokinetic profile of humans given ceftriaxone 1 g every 12 hours (Sai Life Sciences Ltd, India) and doxycycline 100 mg every 12 hours.
Skin was used for liquid culture, and RNA extraction. All other tissues were used for RNA extraction. The growth of B. burgdorferi in 10 day liquid cultures was detected by dark field microscopy with a 100× objective.

[12] = system: GFP-inducible B. burgdorferi strain pCRW53; assay: Measurement of protein synthesis inhibition (GFP, FACS); type: cell-based
[13] = system: Borrelia burgdorferi BbP1286
HepG2 = settings: HepG2, alamar blue, 72 hours
FaDu = settings: alamar blue, 72 hours
HEK293 = settings: HEK293, alamar blue, 72 hours
[14] = system: Brachyspira (formerly Treponema) hyodysenteriae; settings: report of a group from Japan; cited from earlier work
E. coli WT BW25113 = assay: MIC of E. coli mutant strains
[15] = system: E. coli ΔtolC-Pore (no efflux, hyperporinated); assay: MIC of E. coli mutant strains
[16] = system: Alkalispirochaeta americana DSM 14872
[17] = system: E. coli ΔTolC+pBAD30 bmpD; assay: MIC of E. coli overexpressing bmpD; settings: arabinose induced
[18] = system: Borreliella burgdorferi 297; settings: Borreliella burgdorferi 297, microaerophilic
B. burgdorferi N40 [19] = assay: Mouse infection model (IP injection, oral gavage); settings: for B. burgdorferi culture (% positive) / Mean # of B. burgdorferi/10 mg of skin tissue (qPCR): twice a day for 5 days; for Culture positive (%): C3H, 5 days, whole ear culture; for B. burgdorferi culture from mice: oral gavage twice per day
Treponema pallidum = assay: MIC, T. pallidum in co-culture with rabbit Sf1Ep cells
[20] = 200 mg/kg, bait once a day for 5 days

For Hygromycin A, which MIC ([1]; B. burgdorferi) is on record?
The MIC was 0.25 µg/mL.

What about the MIC ([1]; Borrelia burgdorferi (B31, N40, 297)) of the same substance?
Its MIC is 0.25 µg.

And the MIC ([1]; wild type B. burgdorferi (FIG. 7B))?
Its MIC is 0.25 µg/mL.

And the “Minimum inhibitory concentration (MIC)” value [2]?
The value was 8 µg/mL.

What about the “Activity against S. aureus, times lower compared to B. burgdorferi” value ([3]; S. aureus used in the counter-screen vs B. burgdorferi) of the same substance?
Its value is 64 times.

And the MIC ([3]; Staphylococcus aureus)?
Its MIC is 8 µg.

What about the “Minimum inhibitory concentration (MIC)” value ([3]; Staphylococcus aureus HG003) of the same substance?
Its value is 8 µg/mL.

And the MIC (Escherichia coli MG1655)?
Its MIC is 128 µg.

And the “Minimum inhibitory concentration (MIC)” value (Escherichia coli MG1655)?
The value was 128 µg/mL.

What about the MIC ([4]; Pseudomonas aeruginosa) of the same substance?
Its MIC is >128 µg.

What about the “Minimum inhibitory concentration (MIC)” value ([4]; Pseudomonas aeruginosa PAO1) of the same substance?
Its value is >128 µg/mL.

And the “Minimum inhibitory concentration (MIC)” value [5]?
The value was 16 µg/mL.

And the MIC ([6]; Bacteroides fragilis)?
Its MIC is >128 µg.

What about the “Minimum inhibitory concentration (MIC)” value ([6]; Bacteroides fragilis ATCC 25285, anaerobic) of the same substance?
Its value is 32 µg/mL.

What about the “Minimum inhibitory concentration (MIC)” value [7] of the same substance?
Its value is 64 µg/mL.

And the MIC ([8]; Enterococcus faecalis)?
The MIC was >128 µg.

What about the “Minimum inhibitory concentration (MIC)” value ([8]; Enterococcus faecalis KLE 2341, anaerobic, stool isolate) of the same substance?
The value was >128 µg/mL.

What about the “Minimum inhibitory concentration (MIC)” value [9] of the same substance?
The value was >128 µg/mL.

And the MIC (B. turcica KLEX1; B. turcica KLEX1, stable hygromycin A resistance)?
The MIC was 8 µg/mL.

What about the “MIC increase as compared to wild type parent strain” value (B. turcica KLEX1; B. turcica KLEX1 vs parent) of the same substance?
Its value is 16 fold.

What about the MIC (B. burgdorferi B31 KLEX2; B. burgdorferi B31 KLEX2, stable hygromycin A resistance) of the same substance?
Its MIC is 4 µg/mL.

What about the “MIC increase as compared to wild type parent strain” value (B. burgdorferi B31 KLEX2; B. burgdorferi B31 KLEX2 vs parent) of the same substance?
The value was 16 fold.

What about the MIC (B. burgdorferi B31 KLEX2; Hygromycin A resistant B. burgdorferi (HygR) (FIG. 7B)) of the same substance?
Its MIC is 4 µg/mL.

And the MIC ([10]; BmpD overexpressing B. burgdorferi (FIG. 7B))?
The MIC was 0.0625 µg/mL.

And the “Change of MIC on overexpression of bmpD in B. burgdorferi” value ([10]; normalized to wild-type B. burgdorferi, IPTG-independent)?
Its value is “four-fold reduction”.

And the “B. burgdorferi culture (% positive)” value (B. burgdorferi N40 [11]; [20])?
Its value is 0%.

What about the “Mean # of B. burgdorferi/10 mg of skin tissue (qPCR)” value (shortened to “Mean #”) (B. burgdorferi N40 [11]; [20]) of the same substance?
The value was <1 B. burgdorferi/10 mg of skin t.

And the “Culture positive (%)” value (B. burgdorferi N40 [11]; C3H, bait, daily dose 100 mg/kg/day, 5 days, whole ear culture)?
The value was 0%.

What about the “Clearance of B. burgdorferi infection by consuming baits” value (B. burgdorferi N40 [11]; baits, FIG. 10) of the same substance?
Its value is “efficiently cleared”.

And the “GFP level as compared to control (protein synthesis)” value [12]?
Its value is “dramatically lower level of GFP”.

What about the MIC ([13]; Borrelia burgdorferi BbP1286) of the same substance?
The MIC was 0.12 µg.

And the “Minimum inhibitory concentration (MIC)” value ([13]; Borreliella burgdorferi P1286, microaerophilic)?
Its value is 0.12 µg/mL.

And the IC50 (HepG2)?
Its IC50 is >512 µg/mL.

What about the IC50 (FaDu) of the same substance?
The IC50 was >512 µg/mL.

What about the IC50 (HEK293) of the same substance?
Its IC50 is >512 µg/mL.

And the “Maximal non-toxic dose tested relative to minimal efficacious dose” value (500 mg/kg vs minimal efficacious dose)?
Its value is 10 fold.

What about the “Toxicity at maximal dose tested” value (C3H mice, 500 mg/kg, preliminary data) of the same substance?
Its value is “absence of toxicity”.

What about the Signs of toxicity (any of the doses used in the efficacy experiments (IP, gavage, bait)) of the same substance?
Its Signs of toxicity is “no signs of toxicity”.

And the Indications of toxicity (even at very high doses)?
The Indications of toxicity was “no indications of toxicity”.

And the Biosafety window (preliminary testing)?
Its Biosafety window is > 500 mg/kg.

And the “Treatment of pig dysentery” value [14]?
The value was “showed efficacy”.

And the MIC (E. coli WT BW25113)?
The MIC was 512 µg/mL.

And the MIC [15]?
Its MIC is 16 µg/mL.

What about the MIC ([16]; Alkalispirochaeta americana) of the same substance?
The MIC was 0.5 µg.

And the “Minimum inhibitory concentration (MIC)” value ([16]; Alkalispirochaeta americana DSM 14872, anaerobic)?
The value was 0.5 µg/mL.

And the “Reduction of E. coli MIC on inducing expression of BmpD” value [17]?
Its value is 8 fold.

What about the “Minimum inhibitory concentration (MIC)” value [18] of the same substance?
Its value is 0.25 µg/mL.

What about the MIC (Borrelia garinii; B. garinii) of the same substance?
Its MIC is 0.25 µg/mL.

What about the MIC (Borrelia garinii; Borrelia garinii) of the same substance?
The MIC was 0.25 µg.

What about the “Minimum inhibitory concentration (MIC)” value (Borrelia garinii; Borreliella garinii, microaerophilic) of the same substance?
Its value is 0.25 µg/mL.

And the “B. burgdorferi culture (% positive)” value (B. burgdorferi N40 [19]; 25 mg/kg, oral gavage)?
Its value is 50%.

What about the “Mean #” value (B. burgdorferi N40 [19]; 25 mg/kg, oral gavage) of the same substance?
Its value is <1 B. burgdorferi/10 mg of skin t.

And the “B. burgdorferi culture (% positive)” value (B. burgdorferi N40 [19]; 50 mg/kg, oral gavage)?
Its value is 0%.

And the “Mean #” value (B. burgdorferi N40 [19]; 50 mg/kg, oral gavage)?
The value was <1 B. burgdorferi/10 mg of skin t.

What about the “B. burgdorferi culture (% positive)” value (B. burgdorferi N40 [19]; 70 mg/kg, oral gavage) of the same substance?
Its value is 0%.

What about the “Mean #” value (B. burgdorferi N40 [19]; 70 mg/kg, oral gavage) of the same substance?
The value was <1 B. burgdorferi/10 mg of skin t.

What about the “B. burgdorferi culture (% positive)” value (B. burgdorferi N40 [19]; 75 mg/kg, IP injection) of the same substance?
Its value is 0%.

And the “Mean #” value (B. burgdorferi N40 [19]; 75 mg/kg, IP injection)?
Its value is <1 B. burgdorferi/10 mg of skin t.

What about the “B. burgdorferi culture (% positive)” value (B. burgdorferi N40 [19]; 250 mg/kg, oral gavage) of the same substance?
Its value is 0%.

And the “Mean #” value (B. burgdorferi N40 [19]; 250 mg/kg, oral gavage)?
The value was <1 B. burgdorferi/10 mg of skin t.

And the “Culture positive (%)” value (B. burgdorferi N40 [19]; intraperitoneal injection, daily dose 100 mg/kg/day)?
Its value is 0%.

And the “Culture positive (%)” value (B. burgdorferi N40 [19]; oral gavage, daily dose 50 mg/kg/day)?
The value was 50%.

And the “Culture positive (%)” value (B. burgdorferi N40 [19]; oral gavage, daily dose 100 mg/kg/day)?
Its value is 0%.

And the “Culture positive (%)” value (B. burgdorferi N40 [19]; oral gavage, daily dose 140 mg/kg/day)?
The value was 0%.

And the “Culture positive (%)” value (B. burgdorferi N40 [19]; oral gavage, daily dose 500 mg/kg/day)?
The value was 0%.

What about the Clearance of infection (B. burgdorferi N40 [19]; IP injection twice a day, after 5 days of treatment, similarly to ceftriaxone control) of the same substance?
Its Clearance of infection is “cleared the infection”.

What about the “B. burgdorferi culture from mice” value (B. burgdorferi N40 [19]; 10 and 25 mg/kg) of the same substance?
The value was “B. burgdorferi were cultured from mice”.

What about the “B. burgdorferi culture from mice” value (B. burgdorferi N40 [19]; doses higher than 25 mg/kg) of the same substance?
Its value is “not at any of the higher doses”.

What about the “PCR from ear, joint and heart tissue” value (B. burgdorferi N40 [19]; oral gavage, doses above 50 mg/kg) of the same substance?
The value was “negative”.

And the MIC (Treponema pallidum)?
Its MIC is 0.03 µg.

And the “Minimum inhibitory concentration (MIC)” value (Treponema pallidum)?
Its value is 0.03 µg/mL.

What about the MIC (Treponema pallidum; monitoring spirochetes in co-culture with rabbit cells) of the same substance?
The MIC was 0.03 µg/mL.
